Experimental data taken from paper PMC4882559, “Novel Azetidine-Containing TZT-1027 Analogues as Antitumor Agents” (Marine Drugs, 2016).
Blank lines part the entries; values can stand above or below the compound they belong to.

Legend:
[1] = test system: A549 human lung carcinoma cell lines; experiment: Cancer cell proliferation inhibition (MTT assay), A549; type: cell-based
Procedure: (§1) The following cell lines were used for the screening stage, obtained from American Type Culture Collection (ATCC, Manassas, VA, USA); HCT116 human colon cancer cells and A549 human lung carcinoma cell lines were cultured in RPMI 1640 medium supplemented with 10% FBS. Cell cultures were maintained in a humidified atmosphere of 5% CO2 at 37 °C. Cells were seeded at 2000 cells per well in 96-well plates in a volume of 200 μL per well. The test compounds were dissolved in DMSO and diluted with culture medium to different concentrations. After seeding for 24 h, the medium was removed, and […] of the test compound solution was added in duplicates and incubation continued for 72 h at 37 °C in a humidified atmosphere containing 5% CO2. Control cells were treated with vehicle alone. During the last 4 h of incubation, the cells were exposed to tetrazolium dye (MTT) solution (5 mg/mL, […] per well). The generated formazan crystals were dissolved in […] of dimethyl sulfoxide (DMSO), and the absorbance was read spectrophotometrically at 570 nm using an enzyme-linked immunosorbent assay plate reader. The data was calculated using Graph Pad Prism version 5.0 (GraphPad Softwrae, La Jolla, CA, USA). The IC50s were fitted using a non-linear regression model with a sigmoidal dose response.

[2] = test system: HCT116 human colon cancer cells; experiment: Cancer cell proliferation inhibition (MTT assay), HCT116; type: cell-based; conditions: Homo sapiens, HCT-116, 72 h incubation, mean ± SD of at least three independent experiments
Procedure: as §1

[3] = Liver microsomes metabolic stability, rat
[4] = Liver microsomes metabolic stability, human
[5] = Liver microsomes metabolic stability, mouse
[6] = test system: Human A549 xenograft; experiment: In vivo efficacy study, A549 xenograft model; parameters: species or system BALB/c athymic mice; conditions: 2 mg/kg iv once a day; for Tumor volume: n = 6, mean (SD on next line); for Relative tumor volume: RTV = Vt/V0, n = 6, mean ± SD
Source text: Pathogen-free, 4–6 week-old, female BALB/c athymic mice (Shanghai SCXK Laboratory Animal Technology Co. Ltd., Shanghai, China) were housed under sterile conditions. Human A549 xenograft was established in the right flanks of athymic mice according to the protocol of the National Cancer Institute. When the tumor reached a volume of 100 mm^3, the mice were randomly assigned into control (n = 6 per group) and treatment groups (n = 6 per group). Control group were given lactate buffer, and treatment groups were iv administered with tested compounds. The size of tumor was measured individually on the indicated days. Tumor volume (V) was calculated as V = (length × width^2)/2. The individual relative tumor volume (RTV) was calculated as follows: RTV = Vt/V0, where Vt represented the last tumor size measurement and V0 represented the pre-dosing tumor size measurement. The animal experimental protocols were approved by the Animal Ethics Committee of School of Pharmacy, Fudan University and the mice were treated in accordance with international animal ethics guidelines.

[7] = dose of 4 mg/kg; cited from earlier work
Procedure: Further in vivo antitumor activities of 1a was evaluated in A549 xenograft models in mice via tail vein intravenous injection for 22 days. […] Considering of that, the maximum dose of 1a was chosen as 5 mg/kg. […] However, compound 1a could not achieve effective inhibition at all the dose levels (Figure 3b). TZT-1027 (2 mg/kg/day) inhibited tumor growth by 61% over the 22-day administration schedule, howe ... || In summary, we described the design and synthesis of nine TZT-1027 analogues based on the conformation restriction strategy. 3-Aryl-zetidines were used to replace the phenylethyl group at C-terminus. Two human cancer cell lines (A549, HCT116) were used to evaluate the potency of the synthesized compounds. […] Compound 1a could not achieve effective inhibition in A549 xenograft models at different dose levels.

Structure (SMILES): CC[C@H](C)[C@@H]([C@@H](CC(=O)N1CCC[C@H]1[C@H](OC)[C@@H](C)C(=O)N1CC(c2ccccc2C(C)C)C1)OC)N(C)C(=O)[C@@H](NC(=O)[C@@H](C(C)C)N(C)C)C(C)C [1d, (S)-2-((R)-2-(Dimethylamino)-3-methylbutanamido)-N-((3R,4S,5S)-1-((S)-2-((1R,2R)-3-(3-(2-isopropylphenyl)azetidin-1-yl)-1-methoxy-2-methyl-3-oxopropyl)pyrrolidin-1-yl)-3-methoxy-5-methyl-1-oxoheptan-4-yl)-N,3-dimethylbutanamide]
loss of potency against A549 cell lines ([1]; substituted phenyl analogues compared with 1a): about 60 fold

IC50 ([1]; Homo sapiens, A549, MTT assay, 72 h incubation, mean ± SD of at least three independent experiments): 23.5 ± 9.5 nM
IC50 [2]: 0.3 ± 0.1 nM
Structure (SMILES): CC(=O)O[C@@]12CO[C@@H]1C[C@H](O)[C@@]1(C)C(=O)[C@H](O)C3=C(C)[C@@H](OC(=O)[C@H](O)[C@@H](NC(=O)OC(C)(C)C)c4ccccc4)C[C@@](O)([C@@H](OC(=O)c4ccccc4)[C@H]21)C3(C)C [Docetaxel, reference compound]

Clint ([3]; Rat, apparent intrinsic clearance, 1 μM): 159.00 mL/min/kg
half-life at 1 μM ([3]; rat, liver microsomes): 15.6 min
Clint ([4]; Human, apparent intrinsic clearance, 1 μM): 39.63 mL/min/kg
half-life at 1 μM ([4]; human, liver microsomes): 43.9 min
Clint ([5]; Mouse, apparent intrinsic clearance, 1 μM): 402.92 mL/min/kg
half-life at 1 μM ([5]; mouse, liver microsomes): 13.5 min
Structure (SMILES): O=C(c1ccc(F)cc1)C1CCN(CCn2c(=O)[nH]c3ccccc3c2=O)CC1 [Ketanserin, ketanserin, reference compound]

Structure (SMILES): CC[C@H](C)[C@@H]([C@@H](CC(=O)N1CCC[C@H]1[C@H](OC)[C@@H](C)C(=O)NCCc1ccccc1)OC)N(C)C(=O)[C@@H](NC(=O)[C@H](C(C)C)N(C)C)C(C)C [TZT-1027]
Tumor volume ([6]; day 1): 147.31 mm3
Tumor volume ([6]; day 4): 182.59 mm3
Relative tumor volume ([6]; day 7): 1.48 ± 0.64
Tumor volume ([6]; day 7): 196.64 mm3
Relative tumor volume ([6]; day 10): 1.73 ± 0.78
Tumor volume ([6]; day 10): 232.81 mm3
Relative tumor volume ([6]; day 13): 2.09 ± 0.9
Tumor volume ([6]; day 13): 275.81 mm3
Relative tumor volume ([6]; day 16): 2.3 ± 0.9
Tumor volume ([6]; day 16): 301.7 mm3
Relative tumor volume ([6]; day 19): 2.6 ± 1.33
Tumor volume ([6]; day 19): 346.59 mm3
Relative tumor volume ([6]; day 22): 2.66 ± 1.11
Tumor volume ([6]; day 22): 363.71 mm3
toxicity of a dose [7]: seemed to be toxic
